Reference: US20110039815A1, “MACROCYCLIC METAL COMPLEXES FOR THEIR USE AS ANTICANCER AGENTS” (priority 2005, published 2011)

Legend:
[1] = tested on: cervical cancer cell line Hela S3; experiment: Cell death of cervical cancer cell line Hela S3; format: cell-based
[2] = rat, intravenous injection, approximately 172 mg/kg during a six hour period, 0.7% saline

## ^Me3TacnRhCl3 [formula 8]
[1]
  anticancer activity against Hela S3: positive
[1]; 10^−2 molar preparation (1.5×10^−2 M)
  Hela cell death rate: approximately 93.1%
[1]; 10^−3 molar preparation (1.5×10^−3 M)
  Hela cell death rate: approximately 90%
[2]
  complex-related toxicity or side effects: no complex-related toxicity or side effects
other
  stability in water: stable
